This experiment deals with BDF1 mice, P388 leukemia ip, median survival T/C. Put plainly: NCI In Vivo Anticancer Drug Screen. Data for tumor model P388 Leukemia (intraperitoneal) in B6D2F1 (BDF1) mice. To be noted: endpoint: median survival time, higher = longer survival. The gist of the method: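 Read-out is survival of treated animals expressed relative to the vehicle group, as a T/C ratio.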

For seven compounds, T/C results are on record in PubChem BioAssay AID328 (DTP/NCI, 2004).

“And” between values parts separate entries of the source, which are not always exact repeats. Equal entries are not always repeated. Inconclusive results and toxic doses are left out. Positions of bridges follow the written chain, without caps; N, C: chain ends. Non-standard residues stand in square brackets, D forms with d. Residues, ends and D or L forms follow the SMILES beside them. NMeV = CN[CH](C(=O)O)C(C)C; Sar = CNCC(=O)O

Take `NC(N)=Nc1ccc(C(=O)Oc2ccc([N+](=O)[O-])cc2CN2CCCCC2)cc1`: the T/C reads like this: (dose: 0.78 mg/kg/injection, schedule: Q01DX009 (ip), vehicle: water) 101 % of control; (dose: 0.78 mg/kg/injection, schedule: Q04DX003 (ip), vehicle: water) 100 % of control; (dose: 1.56 mg/kg/injection, schedule: Q01DX009 (ip), vehicle: water) 93 % of control; (dose: 1.56 mg/kg/injection, schedule: Q04DX003 (ip), vehicle: water) 105 % of control; (dose: 3.12 mg/kg/injection, schedule: Q01DX009 (ip), vehicle: water) 100 % of control; (dose: 3.12 mg/kg/injection, schedule: Q04DX003 (ip), vehicle: water) 113 % of control. In addition, the T/C is 104 % of control (dose: 6.25 mg/kg/injection, schedule: Q01DX009 (ip), vehicle: water); 104 % of control (dose: 6.25 mg/kg/injection, schedule: Q04DX003 (ip), vehicle: water); 95 % of control (dose: 12.5 mg/kg/injection, schedule: Q04DX003 (ip), vehicle: water).

In the case of `CO[C@H]1/C=C/O[C@@]2(C)Oc3c(C)c(O)c4c(O)c(c(/C=N/N5C(C)CN(Cc6ccccc6)CC5C)c(O)c4c3C2=O)NC(=O)/C(C)=C\C=C\[C@H](C)[C@H](O)[C@@H](C)[C@@H](O)[C@@H](C)[C@H](OC(C)=O)[C@@H]1C` (stereo not given in full), the T/C is, setting by setting: (dose: 12.5 mg/kg/injection, schedule: Q01DX005 (ip), vehicle: Klucel (hydroxypropylcellulose) (HPC)) 94 % of control; (dose: 12.5 mg/kg/injection, schedule: Q01DX005 (ip), vehicle: other) 97 % of control; (dose: 12.5 mg/kg/injection, schedule: Q01DX005 (oral), vehicle: other) 103 % of control; (dose: 12.5 mg/kg/injection, schedule: Q02DX Z (oral), vehicle: Klucel (hydroxypropylcellulose) (HPC)) 89 % of control; (dose: 25.0 mg/kg/injection, schedule: Q01DX005 (ip), vehicle: Klucel (hydroxypropylcellulose) (HPC)) 97 % of control; (dose: 25.0 mg/kg/injection, schedule: Q01DX005 (ip), vehicle: other) 106 % of control. For the same compound, the T/C is 104 % of control (dose: 25.0 mg/kg/injection, schedule: Q01DX005 (oral), vehicle: Klucel (hydroxypropylcellulose) (HPC)); 103 % of control (dose: 25.0 mg/kg/injection, schedule: Q01DX005 (oral), vehicle: other); 105 % of control (dose: 25.0 mg/kg/injection, schedule: Q02DX Z (ip), vehicle: Klucel (hydroxypropylcellulose) (HPC)); 94 % of control (dose: 50.0 mg/kg/injection, schedule: Q01DX005 (ip), vehicle: Klucel (hydroxypropylcellulose) (HPC)); 103 % of control (dose: 50.0 mg/kg/injection, schedule: Q01DX005 (ip), vehicle: other); 104 % of control (dose: 50.0 mg/kg/injection, schedule: Q01DX005 (oral), vehicle: Klucel (hydroxypropylcellulose) (HPC)). Besides, the T/C (dose: 50.0 mg/kg/injection, schedule: Q01DX005 (oral), vehicle: other) was 104 % of control; the T/C (dose: 50.0 mg/kg/injection, schedule: Q01DX009 (ip), vehicle: Klucel (hydroxypropylcellulose) (HPC)) was 90 % of control; the T/C (dose: 50.0 mg/kg/injection, schedule: Q02DX Z (ip), vehicle: Klucel (hydroxypropylcellulose) (HPC)) is 105 % of control; the T/C (dose: 50.0 mg/kg/injection, schedule: Q02DX Z (oral), vehicle: Klucel (hydroxypropylcellulose) (HPC)) is 99 % of control; the T/C (dose: 100.0 mg/kg/injection, schedule: Q01DX005 (ip), vehicle: Klucel (hydroxypropylcellulose) (HPC)) was 100 % of control; the T/C (dose: 100.0 mg/kg/injection, schedule: Q01DX005 (ip), vehicle: other) is 106 % of control. The T/C reads like this: (dose: 100.0 mg/kg/injection, schedule: Q01DX005 (oral), vehicle: Klucel (hydroxypropylcellulose) (HPC)) 105 % of control; (dose: 100.0 mg/kg/injection, schedule: Q01DX005 (oral), vehicle: other) 114 % of control; (dose: 100.0 mg/kg/injection, schedule: Q01DX009 (ip), vehicle: Klucel (hydroxypropylcellulose) (HPC)) 100 % of control; (dose: 100.0 mg/kg/injection, schedule: Q02DX Z (ip), vehicle: Klucel (hydroxypropylcellulose) (HPC)) 110 % of control; (dose: 100.0 mg/kg/injection, schedule: Q02DX Z (oral), vehicle: Klucel (hydroxypropylcellulose) (HPC)) 100 % of control; (dose: 200.0 mg/kg/injection, schedule: Q01DX005 (ip), vehicle: Klucel (hydroxypropylcellulose) (HPC)) 86 % of control. Also, the T/C is, setting by setting: (dose: 200.0 mg/kg/injection, schedule: Q01DX005 (ip), vehicle: other) 112 % of control; (dose: 200.0 mg/kg/injection, schedule: Q01DX005 (oral), vehicle: Klucel (hydroxypropylcellulose) (HPC)) 105 % of control; (dose: 200.0 mg/kg/injection, schedule: Q01DX009 (ip), vehicle: Klucel (hydroxypropylcellulose) (HPC)) 100 % of control; (dose: 200.0 mg/kg/injection, schedule: Q02DX Z (ip), vehicle: Klucel (hydroxypropylcellulose) (HPC)) 110 % of control; (dose: 200.0 mg/kg/injection, schedule: Q02DX Z (oral), vehicle: Klucel (hydroxypropylcellulose) (HPC)) 89 % of control; (dose: 400.0 mg/kg/injection, schedule: Q01DX005 (ip), vehicle: Klucel (hydroxypropylcellulose) (HPC)) 97 % of control. Also, the T/C runs as follows: (dose: 400.0 mg/kg/injection, schedule: Q01DX005 (oral), vehicle: Klucel (hydroxypropylcellulose) (HPC)) 106 % of control; (dose: 400.0 mg/kg/injection, schedule: Q02DX Z (ip), vehicle: Klucel (hydroxypropylcellulose) (HPC)) 116 % of control; (dose: 400.0 mg/kg/injection, schedule: Q02DX Z (oral), vehicle: Klucel (hydroxypropylcellulose) (HPC)) 91 % of control; (dose: 800.0 mg/kg/injection, schedule: Q01DX005 (oral), vehicle: Klucel (hydroxypropylcellulose) (HPC)) 104 % of control; (dose: 800.0 mg/kg/injection, schedule: Q02DX Z (ip), vehicle: Klucel (hydroxypropylcellulose) (HPC)) 110 % of control; (dose: 1600.0 mg/kg/injection, schedule: Q01DX005 (oral), vehicle: Klucel (hydroxypropylcellulose) (HPC)) 110 % of control. Also, the T/C (dose: 1600.0 mg/kg/injection, schedule: Q02DX Z (ip), vehicle: Klucel (hydroxypropylcellulose) (HPC)) was 109 % of control.

As for `CCCN1c2c(nc(N)[nH]c2=O)NCC1CNc1ccc(C(=O)NC(CCC(=O)O)C(=O)O)cc1` (stereo not given), the T/C was 108 % of control (dose: 100.0 mg/kg/injection, schedule: Q01DX009 (ip), vehicle: saline); 112 % of control (dose: 100.0 mg/kg/injection, schedule: Q04DX003 (ip), vehicle: saline); 100 % of control (dose: 200.0 mg/kg/injection, schedule: Q01DX009 (ip), vehicle: saline); 100 % of control (dose: 200.0 mg/kg/injection, schedule: Q04DX003 (ip), vehicle: saline); 110 % of control (dose: 400.0 mg/kg/injection, schedule: Q01DX009 (ip), vehicle: saline); 91 % of control (dose: 400.0 mg/kg/injection, schedule: Q04DX003 (ip), vehicle: saline).

As for `CC(C)C1NC(=O)C(N)C(C)OC(=O)C(C(C)C)N(C)C(=O)CN(C)C(=O)C2CCCN2C1=O` (stereo not given) (tested in a mixture with another compound) (H-TVP[Sar][NMeV]; ester 1-C; configuration not given here), the T/C by setting is: (dose: 0.05 mg/kg/injection, schedule: Q01DX009 (ip), vehicle: saline + alcohol) 201 % of control; (dose: 0.1 mg/kg/injection, schedule: Q01DX009 (ip), vehicle: saline + alcohol) 260 % of control; (dose: 0.2 mg/kg/injection, schedule: Q01DX009 (ip), vehicle: saline + alcohol) 531 % of control; (dose: 0.3 mg/kg/injection, schedule: Q04DX003 (ip), vehicle: saline + alcohol) 239 % of control; (dose: 0.4 mg/kg/injection, schedule: Q01DX009 (ip), vehicle: saline + alcohol) 96 % of control; (dose: 0.6 mg/kg/injection, schedule: Q04DX003 (ip), vehicle: saline + alcohol) 281 % of control and 187 % of control. Where the note is “dose: 1.2 mg/kg/injection, schedule: Q04DX003 (ip), vehicle: saline + alcohol”, the T/C is 107 % of control.

As to `ClC(Cl)(Cl)SSC(=Nc1ccccc1)SSC(Cl)(Cl)Cl`, the T/C is 106 % of control (dose: 50.0 mg/kg/injection, schedule: Q01DX009 (ip), vehicle: saline with Tween-80) and 117 % of control (dose: 100.0 mg/kg/injection, schedule: Q01DX009 (ip), vehicle: saline with Tween-80).

For `N=C(N)c1ccc(N=C(N)Nc2ccc(C(=N)N)cc2)cc1`, under “dose: 50.0 mg/kg/injection, schedule: Q01DX009 (ip), vehicle: saline”, the T/C was 118 % of control.

On to `N#CCOC(=O)C1(NC(=O)c2ccccc2)CC1c1ccccc1` (stereo not given), for which the T/C runs as follows: (dose: 25.0 mg/kg/injection, schedule: Q01DX005 (ip), vehicle: saline with Tween-80) 95 % of control; (dose: 50.0 mg/kg/injection, schedule: Q01DX005 (ip), vehicle: saline with Tween-80) 90 % of control; (dose: 100.0 mg/kg/injection, schedule: Q01DX005 (ip), vehicle: saline with Tween-80) 92 % of control.
